We go through 1 compound from patent publication US7589057B2, “Oil-in-water method for making alpha-2 agonist polymeric drug delivery systems” (Allergan, Inc., priority 2004, dated 2009).

Data set [1] can be described thus: Effects of gamma sterilization on the stability of bimatoprost. It counts as physicochemical. As for the experimental part: The formula abbreviations correspond to compounds illustrated in FIGS. 2A-2F. High performance liquid chromatography was used to quantify bimatoprost and impurities present in the microparticles. Analytes were eluted from a Waters Symmetry® C18 reverse-phase column using a mobile phase composed of 72/18/10 (water/acetonitrile/methanol v/v/v) containing 0.03% (w/v) trifluoroacetic acid. UV detection was performed at 210 nm.

Data set [2] in a line: Ionisability of bimatoprost. The data set is classed as physicochemical. From the text: (§1) FIGS. 2A, 2B, 2C, 2D, 2E, and 2F illustrate the chemical structure of bimatoprost (AGN 192024, FIG. 2A), 15β bimatoprost (FIG. 2B); 5,6-trans bimatoprost isomer (FIG. 2C); C1 acid of bimatoprost (FIG. 2D); triphenyphosphine oxide (TPPO; FIG. 2E); and 15-Keto bimatoprost (FIG. 2F). Bimatoprost is the active ingredient and the other chemicals are impurities that may be present. […] Bimatoprost is a non-ionizable compound.

The format of data set [3] is physicochemical.
Text: as §1

Data set [4] is described as follows: Solubility of bimatoprost in water. The data set is classed as physicochemical. Conditions: room temperature.
Text: as §1

≈ marks a conversion by molar mass, not a printed value.

For `CCNC(=O)CCC/C=C\C[C@@H]1[C@@H](/C=C/[C@@H](O)CCc2ccccc2)[C@H](O)C[C@@H]1O` [Bimatoprost], in data set [1] (gamma sterilized), the “% wt/wt 5,6-trans” value came to 0.1 % wt/wt; the “% wt/wt 15β” value came to 0.1 % wt/wt; the “% wt/wt bimatoprost” value was 85.3 % wt/wt; the “% wt/wt, 15-keto” value was 2.3 % wt/wt. Also, the “decrease of the amount of active bimatoprost by gamma sterilization” value in data set [1] (gamma sterilized vs none sterilized) is “about 10%”. Moreover, in data set [1] (none sterilized), the “% wt/wt 5,6-trans” value is 0.1 % wt/wt; the “% wt/wt 15β” value came out at 0.2 % wt/wt; the “% wt/wt bimatoprost” value came to 95.3 % wt/wt; the “% wt/wt, 15-keto” value stood at 1.0 % wt/wt. In addition, the ionisability entry in data set [2] was “non-ionizable”. The “partition coefficient Log P” value in data set [3] was 2.4 plus or minus 0.1. For the same compound, the concentration in solution in data set [4] (solubility) was 3.2 mg/mL (≈ 7.7 mM).
